For data set [1], the target named is human recombinant BACE1 (Homo sapiens (Human), UniProt P56817). The data set can be described thus: In vitro enzymatic BACE1 FRET assay. It is filed as biochemical. The settings on record: read-out: BACE1 Enzyme IC50. The method, boiled down:
(§1)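 Ni-NTA-purified recombinant human BACE1 or BACE2 cleaved a 50 nM internally quenched peptide FRET substrate for one hour. Reactions were stopped with tris buffer raising pH to neutrality. Fluorescence was read at ex 488/em 590 nm.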

For data set [2], the system named is BACE1 (Aβ40 from cells stably expressing Amyloid Precursor Protein). As to the kind of experiment: In vitro BACE1 cell-based assay (Aβ40 in conditioned medium, HTRF). Summed up: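 APP-stably expressing cells treated with compounds in 22-point dose response from 62.5 μM top concentration (0.625% final DMSO) for 24 h at 37° C in DMEM/10% FBS. Secreted Aβ40 in conditioned medium quantified by HTRF using ConfAb40 and biotinylated 6E10 with streptavidin-APC, 30-60 min at 23° C.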
On the technique in general: In TR-FRET formats the signal depends on donor and acceptor labels being close together.

Data set [3] deals with human recombinant BACE2 (Homo sapiens (Human), UniProt Q9Y5Z0). The data set can be described thus: In vitro enzymatic BACE2 FRET assay. It counts as biochemical. Particulars: read-out: BACE2 Enzyme IC50. The method, boiled down: as §1
Sequence of human recombinant BACE2 (Q9Y5Z0 63-518): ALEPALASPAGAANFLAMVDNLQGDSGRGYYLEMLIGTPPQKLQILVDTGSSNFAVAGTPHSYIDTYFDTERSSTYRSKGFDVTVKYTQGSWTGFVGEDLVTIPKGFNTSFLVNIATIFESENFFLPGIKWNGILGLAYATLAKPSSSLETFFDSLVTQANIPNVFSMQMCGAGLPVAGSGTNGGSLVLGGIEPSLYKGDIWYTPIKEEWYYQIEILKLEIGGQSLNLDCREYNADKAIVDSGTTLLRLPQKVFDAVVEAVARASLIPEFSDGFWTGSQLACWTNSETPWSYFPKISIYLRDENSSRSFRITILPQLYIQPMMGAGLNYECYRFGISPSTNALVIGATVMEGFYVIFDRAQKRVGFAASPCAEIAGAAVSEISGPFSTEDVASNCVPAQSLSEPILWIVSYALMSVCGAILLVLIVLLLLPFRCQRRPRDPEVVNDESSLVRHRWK
Data set [4] deals with Recombinant CatD (Homo sapiens (Human), UniProt P07339). As to the kind of experiment: In vitro enzymatic Cathepsin D (CatD) FRET assay. It counts as biochemical. Particulars: read-out: Cat D Enzyme IC50. The method, boiled down:
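Recombinant human CatD, expressed in CHO cells, was run in 0.05 M citrate pH 3.5 with 10% DMSO final and 5 mM CHAPS. Reactions were started with 20 nM quenched FRET peptide and incubated 1 h. Tris buffer was added to neutralize the pH before reading fluorescence at ex 500/em 580 nm.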

The subject of data set [5] is β-secretase (Aβ peptide levels). As to the kind of experiment: In vivo inhibition of β-secretase (Aβ reduction in rat CSF and brain). The text has this:
In vivo Inhibition of β-Secretase
Several animal models, including mouse, rat, dog, and monkey, may be used to screen for inhibition of β-secretase activity in vivo following administration of a test compound. […] Animals to be used in this experiment can be wild type, transgenic, or gene knockout animals. For example, the Tg2576 mouse model, prepared and conducted as described in Hsiao et al., Science 274:99-102 (1996), and other non-transgenic or gene knockout animals are useful to analyze in vivo inhibition of Aβ peptide production in the presence of test compounds.
Generally, 2 to 18 month old Tg2576 mice, gene knockout mice or non-transgenic animals are administered test compounds formulated in vehicles, such as cyclodextran, phosphate buffers, hydroxypropyl methylcellulose or other suitable vehicles. One to twenty-four hours following the administration of compound, animals are sacrificed, and brains as well as cerebrospinal fluid (CSF) and plasma are removed for analysis of Aβ levels and test compound concentrations (Dovey et al., J. Neurochem., 76(1):173-181 (2001)) Beginning at time 0, animals are administered by oral gavage, or other means of delivery such as intravenous injection, an inhibitory test compound of up to 100 mg/kg in a standard, conventional formulation, such as 2% hydroxypropyl methylcellulose, 1% Tween80. A separate group of animals receive 2% hydroxypropyl methylcellulose, 1% Tween80 alone, containing no test compound, and serve as a vehicle-control group. At the end of the test period, animals are sacrificed and brain tissues, plasma or cerebrospinal fluid are collected. Brains are either homogenized in 10 volumes (w/v) of 0.2% diethylamine (DEA) in 50 mM NaCl (Best et al., J. Pharmacol. Exp. Ther. 313(2):902-908 (2005)), or in 10 volumes of 0.5% TritonX-100 in Tris-buffered saline (pH at about 7.6). Homogenates are centrifuged at 355,000 g, 4° C. for 30 minutes. CSF or brain supernatants are then analyzed for the presence of Aβ by specific sandwich ELISA assays based on ECL (Electrochemiluminescence) technology. For example, rat Aβ40 is measured using biotinylated-4G8 (Signet) as a capture antibody and Fab40 (an in-house antibody specific to the C-terminal of Aβ40) as a detection antibody. For example, 4 hours after administration of 30 mg/kg oral dose of the test compound in 2% hydroxypropyl methylcellulose, 1% Tween80 (pH2.2) to 200 g male Sprague Dawley rats, Aβ peptide levels are measured for reduction by X % and Y % in cerebrospinal fluid and brain, respectively, when compared to the levels measured in the vehicle-treated or control mice. Alternatively, the antibody sold with the V-PLEX abeta40 Peptide (4G8) Kit, commercially available from Meso Scale Diagnostics (MSD), Rockville, Md. 20850-3173 (Catalog NO. K150SJE-1) may be used in this assay.
The results presented in Table 3 were obtained using certain compounds described herein in the in vivo protocol described above.

Data set [6] has as its system Aβ peptide levels in the CSF and plasma. The settings on record: nonhuman primates; cited from earlier work.
Data set [7] deals with Aβ peptide in CSF. The settings on record: oral dose of 95 mg once daily; cited from earlier work.
For data set [8], the system named is pigment epithelium of the rat's eye. Particulars: higher compound dose given for three months; cited from earlier work.
Data set [9] relates to CSF Aβ peptide concentrations. Particulars: cited from earlier work.
Setting [10] is: Aβ40, 24 h incubation, read-out: BACE1 Cell IC50.

Each structure is given as a SMILES string. Where two headings read alike, the source gives them in different places.

Usually IC50 stands for the concentration at which inhibition is half-maximal.

Sequence of human recombinant BACE1 (P56817 46-501): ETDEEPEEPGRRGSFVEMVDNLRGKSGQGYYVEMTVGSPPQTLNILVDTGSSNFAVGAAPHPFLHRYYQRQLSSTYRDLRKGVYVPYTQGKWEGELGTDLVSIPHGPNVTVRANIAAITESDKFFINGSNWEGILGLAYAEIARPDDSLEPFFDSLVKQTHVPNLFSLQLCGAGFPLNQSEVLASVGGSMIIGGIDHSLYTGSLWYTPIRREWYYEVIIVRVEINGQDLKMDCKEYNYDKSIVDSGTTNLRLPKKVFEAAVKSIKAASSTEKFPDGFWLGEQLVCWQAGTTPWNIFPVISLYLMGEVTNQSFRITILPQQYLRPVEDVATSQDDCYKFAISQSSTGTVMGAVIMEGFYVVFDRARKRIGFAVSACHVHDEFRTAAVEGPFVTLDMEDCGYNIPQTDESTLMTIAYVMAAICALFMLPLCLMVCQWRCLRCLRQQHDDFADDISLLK
Sequence of Recombinant CatD (P07339 65-412): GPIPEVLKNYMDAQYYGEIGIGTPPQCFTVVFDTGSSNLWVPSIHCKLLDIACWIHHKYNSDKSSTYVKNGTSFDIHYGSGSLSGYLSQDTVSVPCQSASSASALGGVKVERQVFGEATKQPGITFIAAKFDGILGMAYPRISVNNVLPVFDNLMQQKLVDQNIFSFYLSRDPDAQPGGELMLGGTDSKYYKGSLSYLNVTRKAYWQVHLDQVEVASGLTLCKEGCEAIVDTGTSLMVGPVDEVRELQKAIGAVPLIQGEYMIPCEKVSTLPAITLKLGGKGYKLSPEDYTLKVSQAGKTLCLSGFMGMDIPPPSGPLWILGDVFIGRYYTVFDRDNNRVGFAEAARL

For the compound `C#CCOc1cnc(/C(F)=C/c2ccc(F)c([C@]34CN(C(C)=O)C[C@H]3CSC(N)=N4)c2)cn1` [Example 118, 1-((4aR,7aS)-2-amino-7a-(2-fluoro-5-((Z)-2-fluoro-2-(5-(prop-2-yn-1-yloxy)pyrazin-2-yl)vinyl)phenyl)-4a,5,7,7a-tetrahydropyrrolo[3,4-d][1,3]thiazin-6(4H)-yl)ethanone], the IC50 in [1] was determined as 7.45 nM; in data set [2] (setting [10]), 0.0198 µM; in data set [3] it was 394 nM; in [4] it was 125000 nM. Moreover, the “% Aβ reduction in rat CSF at 10 mpk” value in [5] is on record as 43%. Besides, in data set [5], the “% Aβ reduction in rat brain at 10 mpk” value was 43%.
`N#Cc1ccc(/C(F)=C/c2ccc(F)c([C@]34CO[C@H](C(F)(F)F)[C@H]3CSC(N)=N4)c2)nc1` [Example 126, 6-((Z)-2-(3-((4aS,5S,7aS)-2-amino-5-(trifluoromethyl)-4a,5,7,7a-tetrahydro-4H-furo[3,4-d][1,3]thiazin-7a-yl)-4-fluorophenyl)-1-fluorovinyl)nicotinonitrile]: the IC50 in data set [1] is 20.1 nM; in data set [2] (setting [10]) it was 0.00574 µM; in data set [3] it was 334 nM; in data set [4], 292000 nM. Besides, in data set [5], the “% Aβ reduction in rat CSF at 10 mpk” value was 83%. The “% Aβ reduction in rat brain at 10 mpk” value in data set [5] is listed as 80%.
Turning to `N#Cc1cnc(/C(F)=C/c2ccc(F)c([C@]34CO[C@H](C(F)(F)F)[C@H]3CSC(N)=N4)c2)cn1` [Example 128, 5-((Z)-2-(3-((4aS,5S,7aS)-2-amino-5-(trifluoromethyl)-4a,5,7,7a-tetrahydro-4H-furo[3,4-d][1,3]thiazin-7a-yl)-4-fluorophenyl)-1-fluorovinyl)pyrazine-2-carbonitrile], the IC50 turned out to be 15.3 nM in [1]; 0.00364 µM in data set [2] (24 h, read-out: BACE1 Cell IC50 (μM)); 341 nM in data set [3]; 418000 nM in [4]. Besides, in [5], the “% Aβ reduction in rat CSF at 10 mpk” value was 79%. The “% Aβ reduction in rat brain at 10 mpk” value in [5] stood at 77%.
Take `N#Cc1cnc(/C(F)=C/c2ccc(F)c([C@]34CO[C@H](C(F)(F)F)[C@H]3CSC(N)=N4)c2)c(Cl)c1` [Example 140, 6-((Z)-2-(3-((4aS,5S,7aS)-2-amino-5-(trifluoromethyl)-4a,5,7,7a-tetrahydro-4H-furo[3,4-d][1,3]thiazin-7a-yl)-4-fluorophenyl)-1-fluorovinyl)-5-chloronicotinonitrile]: the IC50 in data set [1] stood at 8.7 nM; in data set [2] (setting [10]) it was 0.0482 µM; in data set [3], 220 nM; in data set [4], 333000 nM.
The like results for `N#Cc1ccc(/C(F)=C/c2ccc(F)c([C@]34CO[C@H](C(F)F)[C@H]3CSC(N)=N4)c2)nc1` [Example 144, 6-((Z)-2-(3-((4aS,5S,7aS)-2-amino-5-(difluoromethyl)-4a,5,7,7a-tetrahydro-4H-furo[3,4-d][1,3]thiazin-7a-yl)-4-fluorophenyl)-1-fluorovinyl)nicotinonitrile] were, in that order, 21.6 nM, 0.0181 µM, 741 nM and greater than 400000 nM.
In the same order, the values of `N#Cc1ccc(/C(F)=C/c2ccc(F)c([C@@]34CO[C@@H](C(F)F)[C@@H]3CSC(N)=N4)c2)nc1` [Example 145, 6-((Z)-2-(3-((4aR,5R,7aR)-2-Amino-5-(difluoromethyl)-4a,5-dihydro-4H-furo[3,4-d][1,3]thiazin-7a(7H)-yl)-4-fluorophenyl)-1-fluorovinyl)nicotinonitrile] are 48.5 nM, 0.041 µM, 1400 nM and greater than 400000 nM.
With `C[C@H]1OC[C@]2(c3cc(NC(=O)c4cnc(C(F)F)cn4)ccc3F)N=C(N)SC[C@H]12` [Example E2609], in data set [6], the “Aβ peptide levels in the CSF and plasma” value is “significant reduction in Aβ peptide levels in the CSF and plasma”.
As for `C[C@@]1(c2cc(NC(=O)c3ccc(C#N)cn3)ccc2F)C=CSC(N)=N1` [JNJ-54861911], the “Aβ peptide reduction in CSF” value in [7] was “up to 95%”.
Regarding `C[C@@]1(c2cc(-c3cncnc3)c(F)cc2F)CCSC(N)=N1` [LY 2811376], in [8], the eye toxicity finding entry is given as “damaged the pigment epithelium of the rat's eye”.
On to `CN1C(=N)N[C@](C)(c2cc(NC(=O)c3ccc(F)cn3)ccc2F)CS1(=O)=O` [MK-8931], for which the “CSF Aβ peptide concentrations” value in [9] (human, in vivo) is “significantly reduced CSF Aβ peptide concentrations in a sustained and dose-dependent manner”. In addition, the safety profile result in data set [9] (phase I clinical trials) was “excellent safety profile with no immediately noticeable side effects”.

Values taken from US11548903B2, “Bicyclic thiazine and oxazine derivatives as beta-secretase inhibitors and methods of use” (AMGEN INC., priority 2016, dated 2023).
